Reference: patent publication US10681909B2, “Herbicidal triazoles” (FMC Corporation, priority 2014, dated 2020)

How the values were obtained:
[1] = test system: chamomile; experiment: Test D preemergence; format: in vivo, Matricaria inodora; conditions: for Plant response rating: Chamomile: scale 0 to 100
Source text: (§1) Seeds of plant species selected from bluegrass (annual bluegrass, Poa annua), blackgrass (Alopecurus myosuroides), canarygrass (Phalaris minor), chickweed (common chickweed, Stellaria media), galium (catchweed bedstraw, Galium aparine), bromegrass, down (downy bromegrass, Bromus tectorum), Russian thistle (Salsola kali), field poppy (Papaver rhoeas), field violet (Viola arvensis), foxtail, green (green foxtail, Setaria viridis), deadnettle (henbit deadnettle, Lamium amplexicaule), ryegrass, Ital. (Italian ryegrass, Lolium multiflorum), kochia (Kochia scoparia), lambsquarters (Chenopodium album), oilseed rape (Brassica napus), pigweed (Amaranthus retroflexus), chamomile (scentless chamomile, Matricaria inodora), speedwell (bird's-eye speedwell, Veronica persica), barley, spring (spring barley, Hordeum vulgare), wheat, spring (spring wheat, Triticum aestivum), buckwheat, wild (wild buckwheat, Polygonum convolvulus), wild mustard (Sinapis arvensis), oat, wild (wild oat, Avena fatua), radish, wild (wild radish, Raphanus raphanistrum), […]), barley, winter (winter barley, Hordeum vulgare), and wheat, winter (winter wheat, Triticum aestivum) were planted into a silt loam soil and treated preemergence with test chemicals formulated in a non-phytotoxic solvent mixture which included a surfactant. At the same time, these species were planted in pots containing Sunshine Redi-Earth® planting medium comprising spaghnum peat moss, vermiculite, starter nutrients and dolomitic limestone and treated with postemergence applications of the test chemicals formulated in the same manner. Plants ranged in height from 2 to 18 cm (1- to 4-leaf stage). Treated plants and controls were maintained in a controlled growth environment for 14 to 21 d after which time all species were compared to controls and visually evaluated. […] A dash (-) response means no test result.

[2] = test system: field violet; experiment: Test D preemergence; format: in vivo, Viola arvensis; conditions: for Plant response rating: Field Violet: scale 0 to 100
Source text: as §1

[3] = test system: wheat (winter wheat); experiment: Test C preemergence; format: in vivo, Triticum aestivum; conditions: for Wheat plant response rating (0 to 100): Preemergence, visual rating after 13 to 15 d
Source text: Seeds of plant species selected from blackgrass (Alopecurus myosuroides), ryegrass, Italian (Italian ryegrass, Lolium multiflorum), wheat (winter wheat, Triticum aestivum), galium (catchweed bedstraw, Galium aparine), corn (Zea mays), crabgrass, large (large crabgrass, Digitaria sanguinalis), foxtail, giant, (giant foxtail, Setaria faberii), johnsongrass (Sorghum halepense), lambsquarters (Chenopodium album), morningglory (Ipomoea coccinea), nutsedge, yellow (yellow nutsedge, Cyperus esculentus), pigweed (Amaranthus retroflexus), ragweed (common ragweed, Ambrosia elatior), soybean (Glycine max), barnyardgrass (Echinochloa crus-galli), oilseed rape (Brassica napus), waterhemp (common waterhemp, Amaranthus rudis), and velvetleaf (Abutilon theophrasti) were planted into a blend of loam soil and sand and treated preemergence with test chemicals formulated in a non-phytotoxic solvent mixture which included a surfactant. At the same time, plants selected from these crop and weed species and also chickweed (common chickweed, Stellaria media), oat, wild (wild oat, Avena fatua), and kochia (Kochia scoparia), were planted in pots containing Sunshine Redi-Earth® planting medium comprising spaghnum peat moss, vermiculite, starter nutrients and dolomitic limestone and treated with postemergence applications of test chemicals formulated in the same manner. Plants ranged in height from 2 to 18 cm (1- to 4-leaf stage) for postemergence treatments. […] A dash (-) response means no test result.

[4] = test system: wheat, winter; experiment: Test D preemergence; format: in vivo, Triticum aestivum; conditions: for Plant response rating: Wheat, Winter: scale 0 to 100
Source text: as §1

[5] = test system: wheat, spring; experiment: Test D preemergence; format: in vivo, Triticum aestivum; conditions: for Plant response rating: Wheat, Spring: scale 0 to 100
Source text: as §1

[6] = test system: chickweed; experiment: Test D postemergence; format: in vivo, Stellaria media; conditions: scale 0 to 100
Source text: as §1

[7] = test system: ryegrass, Ital.; experiment: Test D preemergence; format: in vivo, Lolium multiflorum; conditions: for Plant response rating: Ryegrass, Ital.: scale 0 to 100
Source text: as §1

[8] = test system: field poppy; experiment: Test D preemergence; format: in vivo, Papaver rhoeas; conditions: for Plant response rating: Field Poppy: scale 0 to 100
Source text: as §1

[9] = test system: oat, wild; experiment: Test D preemergence; format: in vivo, Avena fatua; conditions: for Plant response rating: Oat, Wild: scale 0 to 100
Source text: as §1

[10] = test system: radish, wild; experiment: Test D preemergence; format: in vivo, Raphanus raphanistrum; conditions: for Plant response rating: Radish, Wild: scale 0 to 100
Source text: as §1

[11] = test system: kochia; experiment: Test A postemergence; format: in vivo, Kochia scoparia; conditions: 0 to 100 scale (0 no effect, 100 complete control), approx. 10 d
Procedure, shortened: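 Seeds sown in loam soil–sand blend received a directed preemergence soil spray of test chemical in non-phytotoxic solvent with surfactant; postemergence plants, 2 to 10 cm at one- to two-leaf stage, were sprayed with the same formulation. Injury visually rated versus untreated controls after ~10 d in greenhouse, 0–100 scale.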

[12] = 16 g ai/ha, 0 is no effect, 100 is complete control

For CCOc1nc(-c2ccc(C(F)(F)F)cc2)nn1Cc1ccnc(C(F)(F)F)c1 [Compound 35, 4-[[5-ethoxy-3-[4-(trifluoromethyl)phenyl]-1H-1,2,4-triazole-1-yl]methyl]-2-(trifluoromethyl)pyridine], the “Plant response rating (0 to 100), Chamomile” value [1, 12] was 95, the “Plant response rating: Chamomile” value ([1]; 31 g ai/ha) was 100 and the “Plant response rating: Chamomile” value ([1]; 62 g ai/ha) was 100. For the same compound, the “Plant response rating: Chamomile” value ([1]; 125 g ai/ha) was 100, the “Plant response rating (0 to 100), Field Violet” value [2, 12] was 95 and the “Plant response rating: Field Violet” value ([2]; 62 g ai/ha) was 100. For the same compound, the “Plant response rating: Field Violet” value ([2]; 125 g ai/ha) was 100, the “Wheat plant response rating (0 to 100)” value ([3]; 31 g ai/ha) was 5 and the “Wheat plant response rating (0 to 100)” value ([3]; 62 g ai/ha) was 5. The “Plant response rating (scale of 0 to 100 where 0 is no effect and 100 is complete control)” value ([3]; Wheat, preemergence, 250 g ai/ha) was 35, the “Plant response rating (0 to 100), Wheat, Winter” value [4, 12] was 20 and the “Plant response rating: Wheat, Winter” value ([4]; 62 g ai/ha) was 40. For the same compound, the “Plant response rating: Wheat, Winter” value ([4]; 125 g ai/ha) was 45, the “Plant response rating (0 to 100), Wheat, Spring” value [5, 12] was 25 and the “Plant response rating: Wheat, Spring” value ([5]; 62 g ai/ha) was 50. The “Plant response rating: Wheat, Spring” value ([5]; 125 g ai/ha) was 50, the “Plant response rating: Chickweed” value ([6]; 16 g ai/ha) was 70 and the “Plant response rating: Chickweed” value ([6]; 31 g ai/ha) was 85. The “Plant response rating: Chickweed” value ([6]; 62 g ai/ha) was 100, the “Plant response rating: Chickweed” value ([6]; 125 g ai/ha) was 100 and the “Plant response rating (0 to 100), Ryegrass, Ital.” value [7, 12] was 35. The “Plant response rating: Ryegrass, Ital.” value ([7]; 62 g ai/ha) was 65, the “Plant response rating: Ryegrass, Ital.” value ([7]; 125 g ai/ha) was 70 and the “Plant response rating (0 to 100), Field Poppy” value [8, 12] was 100. The “Plant response rating: Field Poppy” value ([8]; 62 g ai/ha) was 100, the “Plant response rating: Field Poppy” value ([8]; 125 g ai/ha) was 100 and the “Plant response rating (0 to 100), Oat, Wild” value [9, 12] was 40. For the same compound, the “Plant response rating: Oat, Wild” value ([9]; 62 g ai/ha) was 75, the “Plant response rating: Oat, Wild” value ([9]; 125 g ai/ha) was 80 and the “Plant response rating (0 to 100), Radish, Wild” value [10, 12] was 65. For the same compound, the “Plant response rating: Radish, Wild” value ([10]; 62 g ai/ha) was 85, the “Plant response rating: Radish, Wild” value ([10]; 125 g ai/ha) was 100 and the “Plant response rating, Kochia” value ([11]; 31 g ai/ha) was 90. For the same compound, the “Plant response rating, Kochia” value ([11]; 125 g ai/ha) was 90.
